Read-outs that look alike come from different tables or passages of the source.
Experiments:
[1] = target: recombinant 0N4R Tau fibrils (Homo sapiens (Human), UniProt P10636); assay: 3H-THK5117 competition binding to tau fibrils in vitro; conditions: competition with 3 nM [3H]-THK5117, 0N4R tau fibrils, 1 h, 22° C.; average if run more than once
Description: ^3H-THK5117 Competition Binding to Tau Fibrils In Vitro
Preparation of recombinant 0N4R Tau fibrils was performed as previously described in Morozova, O. A., Biochemistry (2013), Vol., 52(40), pages 6960-6967. Competition binding experiments to 0N4R Tau fibrils were performed by incubating increasing concentrations [10^−10-10^−6 M] of the Example compounds of the invention, or the known tau specific ligand PBB3 (PBB3 was synthesized as previously described in M. Maruyama, et al, Neuron 2013, 79, 1094-1108) or MK6240 (Novandi Chemistry AB), in the presence of 3 nM of the known tau ligand [^3H]-THK5117 (Novandi Chemistry) and 0.2 mM 0N4R tau fibrils in binding buffer (50 mM Tris-HCl, pH 7.4, 0.1% BSA) for 1 h in the dark, and at 22° C. The incubation was terminated by filtration through a Whatman GF/B glass filter (Whatman International, Kent, UK) using a Brandel cell harvester. The filter was then washed rapidly four times with 3 mL of ice-cold wash buffer (5 mM Tris-HCl, 0.25 mM NaCl, 5% EtOH), and equilibrated for 1 h in scintillation vials containing 5 mL of Ultima Gold scintillation fluid before being analysed using a Liquid Scintillation Analyzer.
The results are shown in Table 2 in the column labeled “Tau IC50”. […] Biological Assay Results

[2] = cited from earlier work
[3] = Mouse intravenous (IV) pharmacokinetic study of plasma and brain exposure with bioanalysis; type: in vivo; conditions: for half-life / Kp: male, NMRI, iv, 1 mg/kg; for Kp: brain/plasma
Description: A pharmacokinetic study of plasma and brain exposure in mice after IV administration of Example Compound 1 or Comparative Example Compound 1 was carried out following the protocol described in Loryan, I., et al, Pharm Res (2014) 31: 2203-2219. Comparative Example Compound 1 is 2-{2-Fluoro-6-[4-(hydroxymethyl)piperidin-1-yl]pyridin-3-yl}-1H-indol-5-ol, and has the following structure:
The experimental protocol and bioanalysis described in Loryan, I., et al, Pharm Res (2014) 31: 2203-2219 was followed to measure mouse plasma and brain exposure. Table 3 below provides specific details of the mice, sampling, dose, formulation, method and additional information regarding the experiment, and Table 4 below provides further information regarding the sampling in the experiment.

[4] = brain, mouse NMRI male, IV 1 mg/kg, mean n=3
[5] = mouse, mouse, IV 1 mg/kg, read-out: Total concentration brain:plasma ratio
[6] = mouse, mouse, IV 1 mg/kg, read-out: Unbound concentration brain:plasma ratio
[7] = mouse, mouse, IV 1 mg/kg, read-out: unbound AUC in brain as % of the plasma AUC
[8] = plasma, mouse NMRI male, IV 1 mg/kg, mean n=3

Sequence of recombinant 0N4R Tau fibrils (P10636 other isoform, or with tags, fused parts or gaps): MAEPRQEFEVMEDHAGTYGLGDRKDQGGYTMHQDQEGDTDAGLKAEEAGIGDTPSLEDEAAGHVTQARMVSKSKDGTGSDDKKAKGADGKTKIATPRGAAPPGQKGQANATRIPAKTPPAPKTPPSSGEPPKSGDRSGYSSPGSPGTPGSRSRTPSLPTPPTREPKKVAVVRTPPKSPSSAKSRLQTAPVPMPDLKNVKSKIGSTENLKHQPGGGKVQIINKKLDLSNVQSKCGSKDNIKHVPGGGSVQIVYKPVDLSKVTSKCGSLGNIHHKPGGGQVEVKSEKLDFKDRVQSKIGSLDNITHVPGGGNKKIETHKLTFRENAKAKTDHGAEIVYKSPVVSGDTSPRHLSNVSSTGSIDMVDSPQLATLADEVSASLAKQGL

`CO[C@@H]1CCCN(c2ccc(-c3cc4cc(O)ccc4[nH]3)c(F)n2)C1` [Example Compound 2, 2-{2-Fluoro-6-[(3R)-3-methoxypiperidin-1-yl]pyridin-3-yl}-1H-indol-5-ol] showed an IC50 [1] of 31.8 nM.
For `[11CH3]Nc1ccc(/C=C/C=C/c2nc3ccc(O)cc3s2)cn1` [^11C-PBB3], the “radiochemical purity after exposure to fluorescent light” value ([2]; 1 min after exposure) is given as 77% and the “radiochemical purity after exposure to fluorescent light” value ([2]; from 10 to 60 min after exposure) is given as “approximately 50%”.
`CO[C@H]1CCCN(c2ccc(-c3cc4cc(O)ccc4[nH]3)c(F)n2)C1` [Example Compound 1, 2-{2-Fluoro-6-[(3S)-3-methoxypiperidin-1-yl]pyridin-3-yl}-1H-indol-5-ol] gave an AUCinf [3, 4] of 457.8 ng·h/g, an AUClast [3, 4] of 454.6 ng·h/g and a Cmax [3, 4] of 1190 ng/g. For the same compound, the Tmax [3, 4] was 1.8 min, the “Total concentration AUC” value ([3]; brain, mouse, IV 1 mg/kg) was 457.8 ng·h/g and the “Unbound concentration AUC” value ([3]; brain, mouse, IV 1 mg/kg) was 0.09 ng·h/g. It also gave a half-life ([3]; mouse, brain, brain, following IV dosing, mouse, read-out: elimination half-life (converted)) of about 18 min, a half-life ([3]; mouse, brain, brain, mouse NMRI male, IV 1 mg/kg, mean n=3, read-out: t1/2 (converted)) of 18 min and a Kp [3, 5] of 1.7. It also gave a Kp [3, 6] of 0.56, a Kp [3, 7] of about 0.56 and a half-life ([3]; mouse, plasma, plasma, mouse NMRI male, IV 1 mg/kg, mean n=3, read-out: t1/2 (converted)) of 24 min. For the same compound, the “adverse events in the mice during the study” value ([3]; mouse, IV 1 mg/kg) was “No adverse events were observed”, the AUC(0-inf) [3, 8] was 267 ng·h/mL and the AUC(0-t) [3, 8] was 264 ng·h/mL. It also gave a C0 [3, 8] of 884 ng/mL, a Cmax [3, 8] of 782 ng/mL and an MRT [3, 8] of 18 min. It also gave a Tmax [3, 8] of 1.8 min, a Vd [3, 8] of 1.2 L/kg and a clearance [3, 8] of 62.4 mL/min/kg. For the same compound, the “Total concentration AUC” value ([3]; plasma, mouse, IV 1 mg/kg) was 267.1 ng·h/g, the “Unbound concentration AUC” value ([3]; plasma, mouse, IV 1 mg/kg) was 0.16 ng·h/g and the IC50 [1] was 1.7 nM.
For `OCC1CCN(c2ccc(-c3cc4cc(O)ccc4[nH]3)c(F)n2)CC1` [Comparative Example Compound 1, 2-{2-Fluoro-6-[4-(hydroxymethyl)piperidin-1-yl]pyridin-3-yl}-1H-indol-5-ol, reference compound], the “Total concentration AUC” value ([3]; brain, mouse, IV 1 mg/kg) was 15 ng·h/g, the “Unbound concentration AUC” value ([3]; brain, mouse, IV 1 mg/kg) was 0.030 ng·h/g and the Kp [3, 5] was 0.1. For the same compound, the Kp [3, 6] was 0.002, the Kp [3, 7] was about 0.002 and the “Total concentration AUC” value ([3]; plasma, mouse, IV 1 mg/kg) was 151 ng·h/g. For the same compound, the “Unbound concentration AUC” value ([3]; plasma, mouse, IV 1 mg/kg) was 14 ng·h/g.

Source: patent publication US12304901B2, “Selective ligands for tau aggregates” (Sentonix, Inc., priority 2022, dated 2025)
